Laboratory results published in patent US20030083271A1, “Topoisomerase I selective cytotoxic sugar derivatives of indolopyrrolocarbazoles” (priority 2001, published 2003).

How the values were obtained:
[1] = target: T1, purified human topoisomerase I (Homo sapiens, UniProt P11387); assay: Topoisomerase I-mediated single strand DNA break induction (in vitro); format: biochemical; conditions: median effect concentration for inducing single-strand breaks in the DNA substrate; read-out: Topo I EC50
T1 construct: purchased Topogen
T1 sequence (P11387 1-765): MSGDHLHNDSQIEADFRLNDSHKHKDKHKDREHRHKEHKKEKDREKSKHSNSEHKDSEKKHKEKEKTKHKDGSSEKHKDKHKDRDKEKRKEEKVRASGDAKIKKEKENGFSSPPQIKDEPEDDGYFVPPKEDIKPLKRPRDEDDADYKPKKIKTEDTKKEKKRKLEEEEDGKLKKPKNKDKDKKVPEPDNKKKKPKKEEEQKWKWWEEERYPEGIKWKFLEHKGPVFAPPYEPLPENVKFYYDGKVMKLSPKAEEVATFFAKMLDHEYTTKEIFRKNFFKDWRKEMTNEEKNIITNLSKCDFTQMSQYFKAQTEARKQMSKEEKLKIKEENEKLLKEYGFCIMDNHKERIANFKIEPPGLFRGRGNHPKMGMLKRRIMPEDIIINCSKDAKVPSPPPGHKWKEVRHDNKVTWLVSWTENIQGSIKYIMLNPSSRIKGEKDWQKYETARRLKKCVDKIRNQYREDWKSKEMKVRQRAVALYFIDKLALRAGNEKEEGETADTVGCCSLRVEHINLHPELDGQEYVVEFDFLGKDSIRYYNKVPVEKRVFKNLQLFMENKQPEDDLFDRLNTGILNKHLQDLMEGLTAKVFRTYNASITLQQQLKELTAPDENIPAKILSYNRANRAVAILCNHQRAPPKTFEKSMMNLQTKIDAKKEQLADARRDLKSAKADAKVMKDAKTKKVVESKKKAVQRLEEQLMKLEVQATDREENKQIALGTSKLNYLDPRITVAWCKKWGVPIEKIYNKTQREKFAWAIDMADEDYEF
Method: Topoisomerase I activity was measured as described below. The procedure for assaying compound-induced, topoisomerase I-mediated single strand breaks in DNA was essentially that described by Hsiang, et al., (J. Biol. Chem. 1985, 260, 14873-14878). Samples dissolved in 100% DMSO as either […] or 10 mg/ml solutions, unless otherwise stated, were diluted in Tris-EDTA buffer. Marine bacteriophage PM2 DNA (Boehringer Mannheim) was also diluted in Tris-EDTA buffer to a concentration of 0.02 μg/μl. Different dilutions of the compound being evaluated were mixed with diluted DNA and this mixture was added to […] (one unit of enzyme activity is defined as the amount capable of relaxing 100 ng of supercoiled DNA in approximately 30 minutes at 37° C.) aliquots of purified human topoisomerase I (Topogen) in 2X reaction buffer to start the reaction. The compound-DNA-enzyme mixture was incubated for 30 minutes at 37° C. before stopping the reaction with warm stop buffer containing sodium dodecyl sulfate and proteinase K (Sigma). These mixtures were allowed to incubate at 37° C. for another 10 minutes, at which time the mixtures were removed from the waterbath and extracted with a 24:1 mixture of chloroform/isoamyl alcohol. Following centrifugation, aliquots of the aqueous phases were placed in wells of a 0.9% agarose (SeaKem) gel in Tris-borate buffer containing 0.5 μg/ml of ethidium bromide and subjected to electrophoresis for 15 hours to separate the different topological isomers and nicked and broken DNAs. After destaining the gel in water, the ethidium bromide stained DNA reaction products were visualized by exposing the gel to UV irradiation. Negatives of the photographs of the irradiated gels were scanned with a densitometer and areas under the peaks were calculated in order to obtain percent single strand DNA break formation for each sample. A median effective concentration (EC50) was obtained for each compound by interpolation between points of the resulting dose-effect curve which defines the potency of the compound for its effect in inducing topoisomerase I-mediated single strand breaks in DNA. The topoisomerase I activities for certain compounds of the present invention are shown below in Table I.

P388/CPT45 cells = assay: Cytotoxicity in camptothecin-resistant P388/CPT45 cells relative to parental P388 (selectivity index R/S); format: cell-based, murine; conditions: IC50 P388/CPT45 cells divided by IC50 parental P388 cells
Excerpt: The present invention includes fluoro sugar and other sugar derivatives of indolopyrrolocarbazoles of formula (I), as defined above. […] Most importantly, the instant invention describes topo I active compounds, related to compounds disclosed in WO 98/07433 and co-pending U.S. application, Ser. No. 08/914566 (both herein incorporated by reference), which display a surprising and unexpected selectivity index when evaluated for cytotoxicity in certain cell lines which express normal levels of topo I required for cell proliferation, compared with cell lines that are deficient in or underexpress topo I. Said “selectivity index” (R/S) was generated by dividing the cytotoxic IC50 of a particular compound against a camptothecin-resistant murine leukemia cell line, P388/CPT45, by the IC50 generated when using the parent P388 cell line. […] A level of selectivity was judged to be advantageous and beneficial in, for example, modulating potential undesirable side effects and/or toxicity. The compounds of the present invention were selected from compounds generically disclosed in WO 98/07433 and co-pending U.S. patent application, Ser. No. 08/914566, on the basis of an unexpected and unpredictable selectivity index (see Table I and II). […] Simple changes in the substitution of the sugar portion or the indolopyrrolocarbazole portion of the present invention will change the selectivity. This change in selectivity is not predictable by one skilled in the art.
(§1) Similarly, P338 murine leukemia cells were maintained in RPMI 1640 supplemented with 20% fetal bovine serum and 10 μM 2-mercaptoethanol. A camptothecin resistant subline, P388/CPT45, was selected for resistance to camptothecin and is over 1000-fold resistant to this compound (Woessner, et al. Oncol. Res. 1992, 4, 481-488).
(§2) In vitro cytotoxicity was assessed in tissue culture cells by MTS (3-(4,5-dimethylthiazol-2-yl)-5-(3-carboxymethoxyphenyl)-2-(4-sulphenyl)-2H-tetrazolium, inner salt) assay (Riss and Moravec, Mol. Biol. Cell 1992, 3 (Suppl.), 184a). Cells were plated at 8,000 cell/well in 96 well microtiter plates and 24 hours later serial dilutions of the test compounds were made and added to the cells. The cells were incubated at 37° C. for 72 hours, at which time the tetrazolium dye, MTS at 333 μg/ml (final concentration), in combination with the electron coupling agent phenazine methosulfate at 25 μM (final concentration) was added. A dehydrogenase enzyme in live cells reduces the MTS to a form that absorbs light at 492 nm which can be quantitated spectrophotometrically. The greater the absorbance the greater the number of live cells. The results are expressed as an IC50, which is the drug concentration required to inhibit cell proliferation (i.e., absorbance at 492 nm) to 50% of that of untreated control cells.
The selectivity index (R/S) is defined as the ratio obtained by dividing the IC50 value obtained using P388/CPT45 cells by that obtained using parental P388 cells. The R/S ratios used to determine the relative topo I selectivity of selected compounds of this invention are shown below in Table I.

[2] = system: P388 murine leukemia cells; assay: In vitro cell-based cytotoxicity, parental P388 cells; conditions: Mus musculus, 72 h, median cytotoxic concentration, 3 days continuous exposure
Method: The proliferation inhibition activity against the murine P388 cell line was measured as follows. Evaluation of a soluble tetrazolium/formazan assay for cell growth and drug sensitivity in culture, using human and other tumor cell lines, was done according to the procedure described in Cancer Res. 1988, 48, 4827-4833. Cells were plated at 4000 cells/well in 96 well microtiter plates and 24 h later drugs were added and serially diluted. The cells were incubated at 37° C. for 72 h, at which time a tetrazolium dye, XTT, containing phenazine methosulfate was added. A dehydrogenase enzyme in live cells reduced the XTT to a form that absorbs light at 450 nm, which could be quantitated spectrophotometrically. The greater the absorbance the greater the number of live cells. The results are expressed as an IC50, which is the drug concentration required to inhibit cell proliferation (i.e., absorbance at 450 nm) to 50% of that of untreated control cells.
as §1, §2
The cytotoxic activity for certain compounds of the present invention, in both parental P388 and the camptothecin-resistant P388/CPT45 cell lines are shown below in Table I.

Row | Compound | EC50 [1] [µM] | Selectivity Index R/S (P388/CPT45 cells) | IC50 [2] [µM]
1 | O=C1NC(=O)c2c1c1c3cc(F)c(F)cc3[nH]c1c1c2c2cc(F)c(F)cc2n1[C@@H]1O[C@H](CF)C[C@@H](F)[C@H]1O [Example 17, 12-[3,6-Difluoro-3,4,6-trideoxy-β-D-allopyranosyl]-2,3,9,10-tetrafluoro-12,13-dihydro-5H-indolo[2,3-a]pyrrolo[3,4-c]carbazole-5,7(6H)-dione] | 0.45 | 179.2 | 0.041
2 | O=C1NC(=O)c2c1c1c3ccc(F)cc3[nH]c1c1c2c2ccc(F)cc2n1[C@@H]1O[C@H](CO)[C@@H](O)[C@H](O)[C@H]1O [Example 37] | 0.24 | 8.7 | 0.26
3 | O=C1NC(=O)c2c1c1c3cc(F)ccc3[nH]c1c1c2c2cc(F)ccc2n1[C@@H]1O[C@H](CO)C[C@H](O)[C@H]1O [Example 31, 12-[4-Deoxy-β-D-glucopyranosyl]-3,9-difluoro-12,13-dihydro-5H-indolo[2,3-a]pyrrolo[3,4-c]carbazole-5,7(6H)-dione] | 0.08 | 720.7 | 0.004
4 | [N-]=[N+]=N[C@H]1[C@@H](O)[C@@H](O)[C@H](n2c3ccc(F)cc3c3c4c(c5c6cc(F)ccc6[nH]c5c32)C(=O)NC4=O)O[C@@H]1CF [Example 19] | 0.06 | >195.2 | < 0.003
5 | NC[C@H]1O[C@@H](n2c3ccc(F)cc3c3c4c(c5c6ccccc6sc5c32)C(=O)NC4=O)[C@H](O)[C@@H](O)[C@@H]1O [Example 36] | 0.18 | <1.1 | 8.99
6 | NC[C@@H]1C[C@H](O)[C@@H](O)[C@H](n2c3ccc(F)cc3c3c4c(c5c6cc(F)ccc6[nH]c5c32)C(=O)NC4=O)O1 [Example 41] | 0.02 | 27.3 | 0.072
7 | NC[C@H]1O[C@@H](n2c3cc(F)c(F)cc3c3c4c(c5c6cc(F)c(F)cc6sc5c32)C(=O)NC4=O)[C@H](O)[C@@H](O)[C@@H]1F [Example 12, 12-[6-Amino-4,6-dideoxy-4-fluoro-β-D-glucopyranosyl]-2,3,9,10-tetrafluoro-5H,13H-benzo[b]thienyl[2,3-a]pyrrolo[3,4-c]carbazole-5,7(6H)-dione] | 0.02 | 131.5 | 0.002
8 | O=C1NC(=O)c2c1c1c3cc(F)ccc3[nH]c1c1c2c2cc(F)ccc2n1[C@@H]1O[C@H](CF)[C@H](O)[C@H](O)[C@H]1O [Example 4, 12-[6-Deoxy-6-fluoro-β-D-galactopyranosyl]-3,9-difluoro-12,13-dihydro-5H-indolo[2,3-a]pyrrolo[3,4-c]carbazole-5,7(6H)-dione] | 0.22 | 110.9 | 0.012
9 | NC[C@H]1O[C@@H](n2c3ccc(F)cc3c3c4c(c5c6cc(F)ccc6sc5c32)C(=O)NC4=O)[C@H](O)[C@@H](O)[C@@H]1O [Example 6] | 0.07 | >116.3 | 0.068
10 | O=C1NC(=O)c2c1c1c3cc(F)ccc3[nH]c1c1c2c2cc(F)ccc2n1[C@@H]1O[C@H](CF)C[C@H](O)[C@H]1O [Example 15] | 0.03 | >149.7 | 0.005
11 | O=C(O)CSC[C@H]1O[C@@H](n2c3ccc(F)cc3c3c4c(c5c6cc(F)ccc6[nH]c5c32)C(=O)NC4=O)[C@H](O)[C@@H](O)[C@@H]1O [Example 1] | 0.05 | 101.7 | 0.057
12 | O=C1NC(=O)c2c1c1c3cc(F)ccc3sc1c1c2c2cc(F)ccc2n1[C@@H]1O[C@H](CF)[C@@H](O)[C@H](O)[C@H]1O [Example 3] | 0.06 | 110.4 | 0.016
13 | [N-]=[N+]=N[C@H]1[C@H](O)[C@@H](O)[C@H](n2c3ccc(F)cc3c3c4c(c5c6cc(F)ccc6[nH]c5c32)C(=O)NC4=O)O[C@@H]1CO [Example 10] | 0.02 | 121.3 | 0.068
